In patent US9302999B2, “Substituted triazoles as herbicides” (E. I. DU PONT DE NEMOURS AND COMPANY, priority 2012, dated 2016):

Legend:
Assay type in all cases: in vivo
corn (Zea mays) = test: Test A pre-/postemergence: corn; details: for Corn plant response rating: Postemergence; for Plant response rating, Corn: Preemergence
Summary of the method: (§1)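 Plants in loam–sand blend were treated with test chemicals in non-phytotoxic solvent with surfactant, either as preemergence directed soil spray or postemergence at 2–10 cm, one- to two-leaf stage. After about ten days in greenhouse, injury was rated visually against untreated controls on a 0–100 scale (100 = complete control).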

[1] = system: ducksalad (Heteranthera limosa); test: Test C flooded paddy test: ducksalad; details: scale 0 to 100 (0 no effect, 100 complete control)
Description: (§2) Plant species in the flooded paddy test consisted of rice (Oryza sativa), sedge, umbrella (small-flower umbrella sedge, Cyperus difformis), ducksalad (Heteranthera limosa) and barnyardgrass (Echinochloa crus-galli) grown to the 2-leaf stage for testing. At time of treatment, test pots were flooded to 3 cm above the soil surface, treated by application of test compounds directly to the paddy water, and then maintained at that water depth for the duration of the test.
(§3) Treated plants and controls were maintained in a greenhouse for 13 to 15 days, after which time all species were compared to controls and visually evaluated. Plant response ratings, summarized in Table C, are based on a scale of 0 to 100 where 0 is no effect and 100 is complete control. A dash (-) response means no test result.

[2] = system: barnyardgrass (Echinochloa crus-galli); test: Test A pre-/postemergence: barnyardgrass; details: for Barnyardgrass plant response rating: Postemergence; for Plant response rating, Barnyardgrass: Preemergence
Summary of the method: as §1

[3] = system: morningglory (Ipomoea spp.); test: Test A pre-/postemergence: morningglory; details: for Morningglory plant response rating: Postemergence; for Plant response rating, Morningglory: Preemergence
Summary of the method: as §1

[4] = system: sedge, umbrella (small-flower umbrella sedge, Cyperus difformis); test: Test C flooded paddy test: sedge, umbrella; details: scale 0 to 100 (0 no effect, 100 complete control)
Description: as §2, §3

[5] = system: wheat (Triticum aestivum); test: Test A pre-/postemergence: wheat; details: for Wheat plant response rating: Postemergence; for Plant response rating, Wheat: Preemergence
Summary of the method: as §1

[6] = system: pigweed (Amaranthus retroflexus); test: Test A pre-/postemergence: pigweed; details: for Pigweed plant response rating: Postemergence; for Plant response rating, Pigweed: Preemergence
Summary of the method: as §1

[7] = system: foxtail, giant (giant foxtail, Setaria faberii); test: Test A pre-/postemergence: foxtail, giant; details: for Foxtail, Giant plant response rating: Postemergence; for Plant response rating, Foxtail, Giant: Preemergence
Summary of the method: as §1

[8] = system: crabgrass, large (large crabgrass, Digitaria sanguinalis); test: Test A pre-/postemergence: crabgrass, large; details: for Crabgrass, Large plant response rating: Postemergence; for Plant response rating, Crabgrass, Large: Preemergence
Summary of the method: as §1

[9] = system: velvetleaf (Abutilon theophrasti); test: Test A pre-/postemergence: velvetleaf; details: for Velvetleaf plant response rating: Postemergence; for Plant response rating, Velvetleaf: Preemergence
Summary of the method: as §1

[10] = system: barnyardgrass (Echinochloa crus-galli); test: Test C flooded paddy test: barnyardgrass; details: scale 0 to 100 (0 no effect, 100 complete control)
Description: as §2, §3

rice (Oryza sativa) = test: Test C flooded paddy test: rice; details: scale 0 to 100 (0 no effect, 100 complete control)
Description: as §2, §3

[11] = 125 g ai/ha, 0 to 100 scale, 0 is no effect, 100 is complete control
[12] = 500 g ai/ha, visual rating on 0 to 100 scale (0 no effect, 100 complete control), approximately ten days
[13] = 125 g ai/ha, 0 to 100 scale (0 no effect, 100 complete control)
[14] = 500 g ai/ha, 0 to 100 scale, 0 is no effect, 100 is complete control
[15] = Flood (flooded paddy test), 62 g ai/ha, visual rating after 13 to 15 days
[16] = Flood (flooded paddy test), 250 g ai/ha, visual rating after 13 to 15 days
[17] = Flood (flooded paddy test), 125 g ai/ha, visual rating after 13 to 15 days

Cc1nn(-c2ccc(F)cc2)nc1Cn1ccc(C(F)(F)F)n1 [Compound 2]
Corn plant response rating (corn (Zea mays); [11]): 10
Corn plant response rating (corn (Zea mays); [12]): 10
Plant response rating, Corn (corn (Zea mays); [13]): 0
Plant response rating, Corn (corn (Zea mays); [14]): 0
Plant response rating, Ducksalad [1, 15]: 0
Plant response rating, Ducksalad [1, 16]: 0
Barnyardgrass plant response rating [2, 11]: 0
Barnyardgrass plant response rating [2, 12]: 10
Plant response rating, Barnyardgrass [2, 13]: 0
Plant response rating, Barnyardgrass [2, 14]: 10
Morningglory plant response rating [3, 11]: 10
Morningglory plant response rating [3, 12]: 20
Plant response rating, Morningglory [3, 13]: 0
Plant response rating, Morningglory [3, 14]: 0
Plant response rating, Sedge, Umbrella [4, 15]: 0
Plant response rating, Sedge, Umbrella [4, 16]: 70
Wheat plant response rating [5, 11]: 0
Wheat plant response rating [5, 12]: 10
Plant response rating, Wheat [5, 13]: 0
Plant response rating, Wheat [5, 14]: 0
Pigweed plant response rating [6, 11]: 30
Pigweed plant response rating [6, 12]: 90
Plant response rating, Pigweed [6, 13]: 0
Plant response rating, Pigweed [6, 14]: 60
Foxtail, Giant plant response rating [7, 11]: 10
Foxtail, Giant plant response rating [7, 12]: 20
Plant response rating, Foxtail, Giant [7, 13]: 10
Plant response rating, Foxtail, Giant [7, 14]: 50
Crabgrass, Large plant response rating [8, 11]: 10
Crabgrass, Large plant response rating [8, 12]: 20
Plant response rating, Crabgrass, Large [8, 13]: 10
Plant response rating, Crabgrass, Large [8, 14]: 90
Velvetleaf plant response rating [9, 11]: 0
Velvetleaf plant response rating [9, 12]: 0
Plant response rating, Velvetleaf [9, 13]: 0
Plant response rating, Velvetleaf [9, 14]: 0
Plant response rating, Barnyardgrass [10, 15]: 0
Plant response rating, Barnyardgrass [10, 16]: 0
Plant response rating, Rice (rice (Oryza sativa); [15]): 0
Plant response rating, Rice (rice (Oryza sativa); [16]): 0

Cc1nn(-c2ccc(C(F)(F)F)cn2)nc1Cn1ccc(C(F)(F)F)n1 [Compound 7]
Corn plant response rating (corn (Zea mays); [11]): 10
Corn plant response rating (corn (Zea mays); [12]): 50
Plant response rating, Corn (corn (Zea mays); [13]): 0
Plant response rating, Corn (corn (Zea mays); [14]): 30
Plant response rating, Ducksalad [1, 15]: 0
Plant response rating, Ducksalad [1, 17]: 30
Plant response rating, Ducksalad [1, 16]: 70
Plant response rating, Ducksalad ([1]; Flood, 31 g ai/ha): 0
Barnyardgrass plant response rating [2, 11]: 30
Barnyardgrass plant response rating [2, 12]: 90
Plant response rating, Barnyardgrass [2, 13]: 40
Plant response rating, Barnyardgrass [2, 14]: 100
Morningglory plant response rating [3, 11]: 90
Morningglory plant response rating [3, 12]: 90
Plant response rating, Morningglory [3, 13]: 30
Plant response rating, Morningglory [3, 14]: 80
Plant response rating, Sedge, Umbrella [4, 15]: 40
Plant response rating, Sedge, Umbrella [4, 17]: 50
Plant response rating, Sedge, Umbrella [4, 16]: 85
Plant response rating, Sedge, Umbrella ([4]; Flood, 31 g ai/ha): 30
Wheat plant response rating [5, 11]: 0
Wheat plant response rating [5, 12]: 20
Plant response rating, Wheat [5, 13]: 0
Plant response rating, Wheat [5, 14]: 0
Pigweed plant response rating [6, 11]: 100
Pigweed plant response rating [6, 12]: 100
Plant response rating, Pigweed [6, 13]: 100
Plant response rating, Pigweed [6, 14]: 100
Foxtail, Giant plant response rating [7, 11]: 50
Foxtail, Giant plant response rating [7, 12]: 90
Plant response rating, Foxtail, Giant [7, 13]: 90
Plant response rating, Foxtail, Giant [7, 14]: 100
Crabgrass, Large plant response rating [8, 11]: 70
Crabgrass, Large plant response rating [8, 12]: 90
Plant response rating, Crabgrass, Large [8, 13]: 100
Plant response rating, Crabgrass, Large [8, 14]: 100
Velvetleaf plant response rating [9, 11]: 30
Velvetleaf plant response rating [9, 12]: 70
Plant response rating, Velvetleaf [9, 13]: 30
Plant response rating, Velvetleaf [9, 14]: 60
Plant response rating, Barnyardgrass [10, 15]: 0
Plant response rating, Barnyardgrass [10, 17]: 0
Plant response rating, Barnyardgrass [10, 16]: 20
Plant response rating, Barnyardgrass ([10]; Flood, 31 g ai/ha): 0
Plant response rating, Rice (rice (Oryza sativa); [15]): 0
Plant response rating, Rice (rice (Oryza sativa); [17]): 0
Plant response rating, Rice (rice (Oryza sativa); [16]): 15
Plant response rating, Rice (rice (Oryza sativa); Flood, 31 g ai/ha): 0
